Laboratory results as given in US5681723A, “Mutant interleukin 6 with improved biological activity over wild interleukin 6” (Instituto di Ricerche di Biologia Molecolare P. Angelett …, priority 1992, dated 1997).

Legend:
[1] = tested on: human hepatoma cell line Hep3B; assay: CRP-CAT transcription induction assay in transfected human hepatoma Hep3B cells; assay type: cell-based; conditions: ratio of amounts of wild type hIL-6 and mutant giving half maximal stimulation of CRP-CAT in Hep3B cells; wild type = 100%
Method: The biological activity of the mutant of interest was determined first of all on cells of human origin. The activity of hIL-6 on human cells was assayed for its ability to enhance transcription from acute phase gene promoters in cells of hepatic origin (Morrone, G., Ciliberto, G., Oliviero, S., Arcone, R., Dente, L., Content, J. and Cortese, R. (1988) J. Biol. Chem. 263, 12554-12558). […]
In particular, human Hep3B cells were transfected with 45-50/ ug of the plasmid -219 CRP-CAT containing the IL-6 responsive element of the CRP promoter gene. […] After 16-18 hours, precipitates were removed, cells were trypsinized, pooled, counted and plated in equal number (10^5 to 3×10^5) in 5 cm diameter petri dishes; 7-9 hours after plating, cells were induced for 36-40 hours with increasing amounts of mutant or wild-type hIL-6. […]
The assay was carried out in duplicate (in triplicate in case of wild type hIL-6) with serial dilutions of two to four independent preparations of mutant. The activity of the mutant, expressed as a percent of wild type hIL-6, was calculated as the ratio between the amount of wild type hIL-6 and the amount of the mutant under examination necessary to give half maximal stimulation.

[2] = tested on: murine hybridoma cell line 7TD1; assay: HGF (Hybridoma Growth Factor) assay, growth of hIL-6 dependent hybridoma 7TD1; assay type: cell-based; conditions: murine hybridoma 7TD1, HGF assay
Method: Mutant interleukin 6 according to the present invention has also been tested using the classical HGF (Hybridoma Growth Factor) assay for its ability to stimulate growth of the hIL-6 dependent murine hybridoma cell line 7TD1 (Van Snick, J., Cayphas, S., Vink, A., Uyttenhove, C., Coulie, P. G. and Simpson, R. J. (1986) Proc. Natl. Acad. Sci. USA, 83, 9679-9683). The assay was performed taking into account the indications of Fiorillo, M. T., Cabibbo, A., Iacopetti, P., Fattori, E. and Ciliberto, G. (1992) Eur. J. Immunol. 22, 2609-2615.

soluble hIL6 receptor = assay: hIL-6R binding (affinity for the soluble hIL6 receptor); set-up: species or system human; conditions: mutant hIL6 produced in E. coli
Source text: Affinity for the soluble hIL6 receptor of mutant hIL6 produced in E. coli

## S176R: mutant human interleukin 6 with arginine in position 176 in place of serine of wild interleukin 6 [Mutation S176R]
[1]
  Biological activity (% of wt hIL-6): 370±90 % of wt hIL-6
[2]
  ability to stimulate growth of hIL-6 dependent 7TD1 cells, with respect to the wild type: significant increase in biological activity
Soluble hIL6 receptor
  hIL-6R binding (% of wt hIL-6): 320 ± 87 % of wt hIL-6
